Our source for the IC50 values is US10899769B2, “Imidazopiperazinone inhibitors of transcription activating proteins” (Board of Regents, The University of Texas System, priority 2018, dated 2021).

For one assay, the target named is BRD4(49-170) bromodomain (Homo sapiens (Human), UniProt O60885). Kind of assay: BRD4 AlphaScreen Assay. Conditions: binding to biotin-H4(1-21) Ac-K5/8/12/16. Put shortly: (§1)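 AlphaScreen binding of GST-bromodomain to biotin-H4(1-21) Ac-K5/8/12/16: 5 nM CBP with 20 nM peptide, or 2.5 nM BRD4 with 10 nM peptide, in 50 mM HEPES 7.5, […], 1 mM TCEP, 0.003% Tween-20. Compound preincubated 30 min, then beads 2 h, room temperature. IC50 from variable-slope fit.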
(In general: Bead proximity is the source of the signal in Alpha formats.)

The target in assay [1] is GST-CBP(1081-1197) bromodomain (Homo sapiens (Human), UniProt Q92793). Description: CBP AlphaScreen Assay. To be noted: binding to biotin-H4(1-21) Ac-K5/8/12/16. The procedure, abridged:
as §1

GST-CBP(1081-1197) bromodomain, sequence (Q92793 1081-1197): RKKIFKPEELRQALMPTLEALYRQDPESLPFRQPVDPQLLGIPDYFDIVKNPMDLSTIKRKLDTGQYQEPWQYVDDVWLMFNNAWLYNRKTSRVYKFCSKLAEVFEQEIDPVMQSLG

For the compound `CC1C(=O)N(C)Cc2c(-c3cccc4nc(-c5cnn(C)c5)c(C(F)F)cc34)nc(C3CN(CCO)C3)n21` (centres unmarked) [Example 28, 1-(3-(Difluoromethyl)-2-(1-methyl-1H-pyrazol-4-yl)quinolin-5-yl)-3-(1-(2-hydroxyethyl)azetidin-3-yl)-5,7-dimethyl-7,8-dihydroimidazo[1,5-a]pyrazin-6(5H)-one], the values for the IC50 (on BRD4(49-170) bromodomain; in assay [1]) were 9370 nM and 123 nM, respectively.

For `CC1C(=O)N(C)Cc2c(-c3c(F)ccc4nc(-c5cnn(C)c5)c(C(F)(F)F)cc34)nc(C3CCOCC3)n21` (centres unmarked) [Example 35, 1-(6-Fluoro-2-(1-methyl-1H-pyrazol-4-yl)-3-(trifluoromethyl)quinolin-5-yl)-5,7-dimethyl-3-(tetrahydro-2H-pyran-4-yl)-7,8-dihydroimidazo[1,5-a]pyrazin-6(5H)-one], the IC50 (as a rule, the point on the concentration scale where inhibition reaches its midpoint) at BRD4(49-170) bromodomain was found to be 25000 nM; in assay [1], 1200 nM.

As for `CN1Cc2c(N3CCCc4nc(-c5cnn(C)c5)c(C(F)(F)F)cc43)nc(C3CC3)n2CC1=O` [Example 39, 3-Cyclopropyl-7-methyl-1-(6-(1-methyl-1H-pyrazol-4-yl)-7-(trifluoromethyl)-3,4-dihydro-1,5-naphthyridin-1(2H)-yl)-7,8-dihydroimidazo[1,5-a]pyrazin-6(5H)-one], the figures for the IC50 (on BRD4(49-170) bromodomain; in assay [1]) were 25000 nM and 185 nM, respectively.

Take `CC1C(=O)N(C)Cc2c(-c3ccc4c(c3)c(-c3cnn(C)c3)nn4C)nc(C3CCOCC3)n21` (centres unmarked) [Example 40, 5,7-Dimethyl-1-(1-methyl-3-(1-methyl-1H-pyrazol-4-yl)-1H-indazol-5-yl)-3-(tetrahydro-2H-pyran-4-yl)-7,8-dihydroimidazo[1,5-a]pyrazin-6(5H)-one]: the IC50 is 1040 nM at BRD4(49-170) bromodomain and 9 nM in assay [1].

With `CC1C(=O)N(C)Cc2c(-c3ccc4c(c3)c(-c3cnn(C)c3)nn4C)nc(C3=CCOCC3)n21` (centres unmarked) [Example 41, 3-(3,6-Dihydro-2H-pyran-4-yl)-5,7-dimethyl-1-(1-methyl-3-(1-methyl-1H-pyrazol-4-yl)-1H-indazol-5-yl)-7,8-dihydroimidazo[1,5-a]pyrazin-6(5H)-one], the IC50 at BRD4(49-170) bromodomain came to 1620 nM; in assay [1], 14 nM.

`CC1C(=O)N(C)Cc2c(-c3cc4c(-c5cnn(C)c5)nn(C)c4cc3F)nc(C3=CCOCC3)n21` (centres unmarked) [Example 42, 3-(3,6-Dihydro-2H-pyran-4-yl)-1-(6-fluoro-1-methyl-3-(1-methyl-1H-pyrazol-4-yl)-1H-indazol-5-yl)-5,7-dimethyl-7,8-dihydroimidazo[1,5-a]pyrazin-6(5H)-one]: the IC50 at BRD4(49-170) bromodomain turned out to be 3330 nM; in assay [1], 28 nM.

In the case of `CC1C(=O)N(C)Cc2c(-c3cc4c(-c5cnn(C)c5)nn(C)c4cc3F)nc(C3CCOCC3)n21` (centres unmarked) [Example 43, 1-(6-Fluoro-1-methyl-3-(1-methyl-1H-pyrazol-4-yl)-1H-indazol-5-yl)-5,7-dimethyl-3-(tetrahydro-2H-pyran-4-yl)-7,8-dihydroimidazo[1,5-a]pyrazin-6(5H)-one 2,2,2-trifluoroacetate], the IC50 on BRD4(49-170) bromodomain was 1440 nM; in assay [1], 6 nM.

For `CC1C(=O)N(C)Cc2c(-c3cccc4nc(-c5nsc(=O)[nH]5)c(C(F)F)cc34)nc(C3CC3)n21` (centres unmarked) [Example 46, 3-(5-(3-Cyclopropyl-5,7-dimethyl-6-oxo-5,6,7,8-tetrahydroimidazo[1,5-a]pyrazin-1-yl)-3-(difluoromethyl)quinolin-2-yl)-1,2,4-thiadiazol-5(4H)-one], the half-maximal inhibitory concentration (IC50) on BRD4(49-170) bromodomain was found to be 341 nM; in assay [1], 2 nM.

In the case of `CC1C(=O)N(C)Cc2c(-c3cccc4cc(-c5nsc(=O)[nH]5)ncc34)nc(C3CC3)n21` (centres unmarked) [Example 47, 3-(8-(3-Cyclopropyl-5,7-dimethyl-6-oxo-5,6,7,8-tetrahydroimidazo[1,5-a]pyrazin-1-yl)isoquinolin-3-yl)-1,2,4-thiadiazol-5(4H)-one], the concentration for half-maximal inhibition (IC50) is 1460 nM at BRD4(49-170) bromodomain and 2 nM in assay [1].

Regarding `CCN1Cc2c(N3CCCc4cc(-c5cnn(C)c5)c(C(F)F)cc43)nc(C3CC3)n2CC1=O` [Example 48, 3-cyclopropyl-1-(7-(difluoromethyl)-6-(1-methyl-1H-pyrazol-4-yl)-3,4-dihydroquinolin-1(2H)-yl)-7-ethyl-7,8-dihydroimidazo[1,5-a] pyrazin-6(5H)-one], the IC50 on BRD4(49-170) bromodomain was 17600 nM; in assay [1] it was 18 nM.

On to `CC1C(=O)N(C)Cc2c(N3CCCc4cc(-c5cnn(C)c5)c(C(F)F)cc43)nc(C3CC3)n21` (centres unmarked) [Example 49, 3-cyclopropyl-1-(7-(difluoromethyl)-6-(1-methyl-1H-pyrazol-4-yl)-3,4-dihydroquinolin-1(2H)-yl)-5,7-dimethyl-7,8-dihydroimidazo[1,5-a] pyrazin-6(5H)-one], for which the IC50 on BRD4(49-170) bromodomain worked out at 332 nM; in assay [1], 1 nM.

In the case of `CC1C(=O)N(C)Cc2c(-c3ccc4c(cnn4C)c3)nc(C3CC3)n21` (centres unmarked) [Example 50, 3-cyclopropyl-5,7-dimethyl-1-(1-methyl-1H-indazol-5-yl)-7,8-dihydroimidazo[1,5-a] pyrazin-6(5H)-one], the IC50 on BRD4(49-170) bromodomain is 1180 nM; in assay [1], 155 nM.

As for `CC1C(=O)N(C)Cc2c(-c3ccc4sccc4c3)nc(C3CC3)n21` (centres unmarked) [Example 52, 1-(benzo[b]thiophen-5-yl)-3-cyclopropyl-5,7-dimethyl-7,8-dihydroimidazo[1,5-a] pyrazin-6(5H)-one], the results for the IC50 (at BRD4(49-170) bromodomain; in assay [1]) were 487 nM and 94 nM, respectively.

Regarding `CC1C(=O)N(C)Cc2c(-c3ccc4ccncc4c3)nc(C3CC3)n21` (centres unmarked) [Example 53, 3-cyclopropyl-1-(isoquinolin-7-yl)-5,7-dimethyl-7,8-dihydroimidazo[1,5-a] pyrazin-6(5H)-one], the values for the IC50 (on BRD4(49-170) bromodomain; in assay [1]) were 2960 nM and 159 nM, respectively.

As to `CC1C(=O)N(C)Cc2c(-c3ccc4cncn4c3)nc(C3CC3)n21` (centres unmarked) [Example 54, 3-cyclopropyl-1-(imidazo[1,5-a]pyridin-6-yl)-5,7-dimethyl-7,8-dihydroimidazo[1,5-a] pyrazin-6(5H)-one], the IC50 turned out to be 2100 nM on BRD4(49-170) bromodomain and 751 nM in assay [1].

Consider `CC1C(=O)N(C)Cc2c(-c3cccc4cc(C5=CCOCC5)ncc34)nc(C3CC3)n21` (stereo not drawn) [Example 55, 3-cyclopropyl-l-(3-(3,6-dihydro-2H-pyran-4-yl)isoquinolin-8-yl)-5,7-dimethyl-7,8-dihydroimidazo[1,5-a] pyrazin-6(5H)-one], for which the IC50 was 392 nM at BRD4(49-170) bromodomain and 2 nM in assay [1].

In the case of `CC1C(=O)N(C)Cc2c(-c3ccn4cncc4c3)nc(C3CC3)n21` (centres unmarked) [Example 57, 3-cyclopropyl-1-(imidazo[1,5-a]pyridin-7-yl)-5,7-dimethyl-7,8-dihydroimidazo[1,5-a] pyrazin-6(5H)-one], the IC50 at BRD4(49-170) bromodomain worked out at 2610 nM; in assay [1], 1070 nM.

For the compound `CC1C(=O)N(C)Cc2c(-c3cccc4cc(C5CCOCC5)ncc34)nc(C3CC3)n21` (centres unmarked) [Example 58, 3-cyclopropyl-5,7-dimethyl-1-(3-(tetrahydro-2H-pyran-4-yl)isoquinolin-8-yl)-7,8-dihydroimidazo[1,5-a] pyrazin-6(5H)-one], the half-inhibitory concentration (IC50) stood at 188 nM at BRD4(49-170) bromodomain and 2 nM in assay [1].

Consider `Cc1c(-c2cc3cccc(-c4nc(C5CC5)n5c4CN(C)C(=O)C5C)c3cn2)cnn1C` (centres unmarked) [Example 59, 3-cyclopropyl-1-(3-(1,5-dimethyl-1H-pyrazol-4-yl)isoquinolin-8-yl)-5,7-dimethyl-7,8-dihydroimidazo[1,5-a] pyrazin-6(5H)-one], for which the IC50 at BRD4(49-170) bromodomain is 496 nM; in assay [1], 4 nM.

Turning to `Cc1c(-c2nc3cccc(-c4nc(C5CC5)n5c4CN(C)C(=O)C5C)c3cc2C(F)F)cnn1C` (centres unmarked) [Example 61, 3-cyclopropyl-1-(3-(difluoromethyl)-2-(1,5-dimethyl-1H-pyrazol-4-yl)quinolin-5-yl)-5,7-dimethyl-7,8-dihydroimidazo[1,5-a] pyrazin-6(5H)-one], the IC50 on BRD4(49-170) bromodomain came to 511 nM; in assay [1], 4 nM.

Regarding `CC1C(=O)N(C)Cc2c(-c3cccc4cc(-c5ccn(C)n5)ncc34)nc(C3CC3)n21` (stereo not drawn) [Example 62, 3-cyclopropyl-5,7-dimethyl-1-(3-(l-methyl-1H-pyrazol-3-yl)isoquinolin-8-yl)-7,8-dihydroimidazo[1,5-a] pyrazin-6(5H)-one], the IC50 on BRD4(49-170) bromodomain is 164 nM; in assay [1], 2 nM.

As to `Cc1nn(C)cc1-c1cc2cccc(-c3nc(C4CC4)n4c3CN(C)C(=O)C4C)c2cn1` (centres unmarked) [Example 63, 3-cyclopropyl-1-(3-(1,3-dimethyl-1H-pyrazol-4-yl)isoquinolin-8-yl)-5,7-dimethyl-7,8-dihydroimidazo[1,5-a] pyrazin-6(5H)-one], the IC50 at BRD4(49-170) bromodomain was found to be 76 nM; in assay [1], 1 nM.

Turning to `Cc1nn(C)cc1-c1nc2cccc(-c3nc(C4CC4)n4c3CN(C)C(=O)C4C)c2cc1C(F)F` (centres unmarked) [Example 65, 3-cyclopropyl-1-(3-(difluoromethyl)-2-(1,3-dimethyl-1H-pyrazol-4-yl)quinolin-5-yl)-5,7-dimethyl-7,8-dihydroimidazo[1,5-a] pyrazin-6(5H)-one], the values for the IC50 (at BRD4(49-170) bromodomain; in assay [1]) were 426 nM and 17 nM, respectively.

Consider `CC1C(=O)N(C)Cc2c(-c3cccc4cc(-c5ncco5)ncc34)nc(C3CC3)n21` (centres unmarked) [Example 66, 3-cyclopropyl-5,7-dimethyl-1-(3-(oxazol-2-yl)isoquinolin-8-yl)-7,8-dihydroimidazo[1,5-a] pyrazin-6(5H)-one], for which the results for the IC50 (at BRD4(49-170) bromodomain; in assay [1]) were 1590 nM and 11 nM, respectively.

For `Cc1ncn(-c2nc3cccc(-c4nc(C5CC5)n5c4CN(C)C(=O)C5C)c3cc2C(F)F)n1` (centres unmarked) [Example 67, 3-cyclopropyl-1-(3-(difluoromethyl)-2-(3-methyl-1H-1,2,4-triazol-1-yl)quinolin-5-yl)-5,7-dimethyl-7,8-dihydroimidazo[1,5-a] pyrazin-6(5H)-one], the results for the IC50 (at BRD4(49-170) bromodomain; in assay [1]) were 319 nM and 3 nM, respectively.
